Each molecule was assayed against T1, USP19 (Homo sapiens, UniProt O94966) (assay: USP19 fluorescence polarisation (FP) homogeneous assay). Conditions: Ubiquitin-Lys-TAMRA substrate, full-length USP19 2.5 nM, average of at least two duplicate experiments.
T1 sequence (O94966 1-1318): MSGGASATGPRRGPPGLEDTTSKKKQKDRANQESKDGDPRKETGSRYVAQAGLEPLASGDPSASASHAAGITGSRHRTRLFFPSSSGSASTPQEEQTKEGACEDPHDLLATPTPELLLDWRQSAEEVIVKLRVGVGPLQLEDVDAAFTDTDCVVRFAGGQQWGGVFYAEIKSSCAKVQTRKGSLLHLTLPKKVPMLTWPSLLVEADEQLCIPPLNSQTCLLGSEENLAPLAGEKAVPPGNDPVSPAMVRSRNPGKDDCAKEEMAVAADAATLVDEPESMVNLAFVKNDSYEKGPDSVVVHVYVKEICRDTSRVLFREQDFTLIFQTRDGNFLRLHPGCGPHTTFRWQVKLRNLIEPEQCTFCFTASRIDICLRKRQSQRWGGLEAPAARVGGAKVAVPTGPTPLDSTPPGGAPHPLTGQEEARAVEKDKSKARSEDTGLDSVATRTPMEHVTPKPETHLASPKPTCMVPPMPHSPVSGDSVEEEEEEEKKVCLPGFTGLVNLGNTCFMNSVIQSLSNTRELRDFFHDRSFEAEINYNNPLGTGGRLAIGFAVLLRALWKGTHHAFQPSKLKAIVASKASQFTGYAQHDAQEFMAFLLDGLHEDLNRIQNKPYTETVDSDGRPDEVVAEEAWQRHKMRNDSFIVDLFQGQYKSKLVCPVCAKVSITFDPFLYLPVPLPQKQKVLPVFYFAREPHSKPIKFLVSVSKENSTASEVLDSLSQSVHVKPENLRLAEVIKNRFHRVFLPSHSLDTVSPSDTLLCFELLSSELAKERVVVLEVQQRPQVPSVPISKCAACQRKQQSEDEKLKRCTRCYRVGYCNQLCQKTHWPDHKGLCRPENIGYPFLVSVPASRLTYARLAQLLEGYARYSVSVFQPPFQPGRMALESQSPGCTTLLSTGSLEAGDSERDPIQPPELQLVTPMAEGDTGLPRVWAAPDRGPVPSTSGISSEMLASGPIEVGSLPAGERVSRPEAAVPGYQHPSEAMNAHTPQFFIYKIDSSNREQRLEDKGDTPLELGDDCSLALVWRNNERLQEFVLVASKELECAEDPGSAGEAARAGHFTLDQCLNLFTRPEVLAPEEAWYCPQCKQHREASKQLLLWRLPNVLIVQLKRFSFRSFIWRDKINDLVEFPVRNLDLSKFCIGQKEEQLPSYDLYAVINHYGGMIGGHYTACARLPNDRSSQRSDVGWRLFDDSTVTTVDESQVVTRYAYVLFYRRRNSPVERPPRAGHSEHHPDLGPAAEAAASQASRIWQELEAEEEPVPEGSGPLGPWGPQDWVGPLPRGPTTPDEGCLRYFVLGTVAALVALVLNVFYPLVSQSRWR
Type: biochemical
Design: Full-length USP19 was purchased from Boston Biochem (E-576); purchased Boston Biochem E-576
Method in brief: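 Inhibitors serially diluted in buffer (200 μM to 2 μM, 8-18 points) and preincubated 30 min at RT before starting with 500 nM Ub substrate.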
In the case of `C[C@H](CC1CCCCC1)C(=O)N1CC[C@@](O)(Cn2cc(C(=O)N(C)C)c(C3CC3)cc2=O)C2(CCCC2)C1` [Example 232, 1-(((S)-7-((R)-3-Cyclohexyl-2-methylpropanoyl)-10-hydroxy-7-azaspiro[4.5]decan-10-yl)methyl)-4-cyclopropyl-N,N-dimethyl-6-oxo-1,6-dihydropyridine-3-carboxamide], the IC50 is reported as < 500 nM. `O=C(c1cn(C[C@]2(O)CCN(C(=O)[C@H](CO)CC(F)(F)F)CC23CCCC3)c(=O)cc1-c1ccccc1)N1CCNCC1` [Example 249, 1-(((S)-10-Hydroxy-7-((S)-4,4,4-trifluoro-2-(hydroxymethyl)butanoyl)-7-azaspiro[4.5]decan-10-yl)methyl)-4-phenyl-5-(piperazine-1-carbonyl)pyridin-2(1H)-one] was tested, and the IC50 was < 500 nM. For `CCOC(=O)c1cn(C[C@]2(O)CCN(C(=O)[C@H](C)CC3CCCCC3)CC23CCCC3)c(=O)cc1-c1ccccc1` [Example 252, Ethyl 1-(((S)-7-((R)-3-cyclohexyl-2-methylpropanoyl)-10-hydroxy-7-azaspiro[4.5]decan-10-yl)methyl)-6-oxo-4-phenyl-1,6-dihydropyridine-3-carboxylate], the IC50 was < 500 nM. `O=C([C@@H]1CCNC[C@H]1c1ccccc1)N1CCC(O)(Cn2cnc(-c3ccccc3)cc2=O)C2(CCCC2)C1` (stereo partly drawn) [Example 254, 3-((10-Hydroxy-7-((3R,4R)-3-phenylpiperidine-4-carbonyl)-7-azaspiro[4.5]decan-10-yl)methyl)-6-phenylpyrimidin-4(3H)-one] was tested, and the IC50 was < 500 nM. In the case of `C[C@H](CC1CCCCC1)C(=O)N1CC[C@@](O)(Cn2cc(C(=O)N(C)C)c(-c3ccccc3F)cc2=O)C2(CCCC2)C1` [Example 226, 1-(((S)-7-((R)-3-Cyclohexyl-2-methylpropanoyl)-10-hydroxy-7-azaspiro[4.5]decan-10-yl)methyl)-4-(2-fluorophenyl)-N,N-dimethyl-6-oxo-1,6-dihydropyridine-3-carboxamide], the IC50 is reported as < 500 nM. For `CN(C)C(=O)c1cn(C[C@]2(O)CCN(C(=O)[C@H](CCO)CC3CCCCC3)CC2(C)C)c(=O)cc1-c1ccccc1` [Example 164, 1-(((S)-1-((S)-2-(Cyclohexylmethyl)-4-hydroxybutanoyl)-4-hydroxy-3,3-dimethylpiperidin-4-yl)methyl)-N,N-dimethyl-6-oxo-4-phenyl-1,6-dihydropyridine-3-carboxamide], the IC50 was < 500 nM. `C[C@H](CC(C)(F)F)C(=O)N1CC[C@@](O)(Cn2cnc(-c3ccccc3)cc2=O)C2(CCCC2)C1` [Example 258, 3-(((S)-7-((R)-4,4-Difluoro-2-methylpentanoyl)-10-hydroxy-7-azaspiro[4.5]decan-10-yl)methyl)-6-phenylpyrimidin-4(3H)-one] was tested, and the IC50 was < 500 nM. In the case of `C[C@H](CC1CCCCC1)C(=O)N1CC[C@@](O)(Cn2cc(C(=O)N(C)C)c(-c3ccccc3)cc2=O)C2(CCCC2)C1` [Example 211, 1-(((S)-7-((R)-3-Cyclohexyl-2-methylpropanoyl)-10-hydroxy-7-azaspiro[4.5]decan-10-yl)methyl)-N,N-dimethyl-6-oxo-4-phenyl-1,6-dihydropyridine-3-carboxamide], the IC50 is reported as < 500 nM. In the case of `CC(C)N(C)C(=O)c1cn(C[C@]2(O)CCN(C(=O)[C@H](C)CC3CCCCC3)CC2(C)C)c(=O)cc1-c1ccccc1` [Example 120, 1-(((S)-1-((R)-3-Cyclohexyl-2-methylpropanoyl)-4-hydroxy-3,3-dimethylpiperidin-4-yl)methyl)-N-isopropyl-N-methyl-6-oxo-4-phenyl-1,6-dihydropyridine-3-carboxamide], the IC50 is reported as < 500 nM. With `C[C@H](CC1CCCCC1)C(=O)N1CCC(O)(Cn2cnc(-c3ccccc3)cc2=O)C(C)(C)C1` (mixture of isomers) [Example 50, 3-(((R)-1-((R)-3-Cyclohexyl-2-methylpropanoyl)-4-hydroxy-3,3-dimethylpiperidin-4-yl)methyl)-6-phenylpyrimidin-4(3H)-one and 3-(((S)-1-((R)-3-Cyclohexyl-2-methylpropanoyl)-4-hydroxy-3,3-dimethylpiperidin-4-yl)methyl)-6-phenylpyrimidin-4(3H)-one] the IC50 was < 500 nM. Molecule `CC(CC1CCC1)C(=O)N1CCC(O)(Cn2cc(C(=O)N3CCCCC3)c(-c3ccccc3)cc2=O)CC1` (racemic) [Example 15, (R,S)-1-((3-Cyclobutyl-2-methylpropanoyl)-4-hydroxypiperidin-4-yl)methyl)-4-phenyl-5-(piperidine-1-carbonyl)pyridin-2(1H)-one] has an IC50 of 5000 to 50000 nM. In the case of `O=C([C@@H]1CNC[C@H]1c1ccccc1)N1CC[C@@](O)(Cn2cnc(-c3ccccc3)cc2=O)C2(CCCC2)C1` (mixture of isomers) [Example 259, 3-(((S)-10-Hydroxy-7-((3S,4R)-4-phenylpyrrolidine-3-carbonyl)-7-azaspiro[4.5]decan-10-yl)methyl)-6-phenylpyrimidin-4(3H)-one and 3-(((S)-10-Hydroxy-7-((3R,4S)-4-phenylpyrrolidine-3-carbonyl)-7-azaspiro[4.5]decan-10-yl)methyl)-6-phenylpyrimidin-4(3H)-one], the IC50 is reported as < 500 nM. `C[C@H](CC1CCCCC1)C(=O)N1CC[C@@](O)(Cn2cc(C(=O)N(C)C)c(-c3ccccc3F)cc2=O)C(C)(C)C1` [Example 205, 1-(((S)-1-((R)-3-Cyclohexyl-2-methylpropanoyl)-4-hydroxy-3,3-dimethylpiperidin-4-yl)methyl)-4-(2-fluorophenyl)-N,N-dimethyl-6-oxo-1,6-dihydropyridine-3-carboxamide] was tested, and the IC50 was < 500 nM. `C[C@H](CC1CCCCC1)C(=O)N1CC[C@@](O)(Cn2cc(C(=O)N3CCCC3)c(-c3ccccc3)cc2=O)C(C)(C)C1` [Example 123, 1-(((S)-1-((R)-3-Cyclohexyl-2-methylpropanoyl)-4-hydroxy-3,3-dimethylpiperidin-4-yl)methyl)-4-phenyl-5-(pyrrolidine-1-carbonyl)pyridin-2(1H)-one] was tested, and the IC50 was < 500 nM. With `COC[C@H](CC1CCCCC1)C(=O)N1CC[C@@](O)(Cn2cc(C(=O)N(C)C)c(-c3ccccc3)cc2=O)C(C)(C)C1` [Example 160, 1-(((S)-1-((S)-3-Cyclohexyl-2-(methoxymethyl)propanoyl)-4-hydroxy-3,3-dimethylpiperidin-4-yl)methyl)-N,N-dimethyl-6-oxo-4-phenyl-1,6-dihydropyridine-3-carboxamide] the IC50 was < 500 nM. With `C[C@H](CC(F)(F)F)C(=O)N1CC[C@@](O)(Cn2cnc(-c3cccc(F)c3)cc2=O)C2(CCCC2)C1` [Example 257, 6-(3-Fluorophenyl)-3-(((S)-10-hydroxy-7-((R)-4,4,4-trifluoro-2-methylbutanoyl)-7-azaspiro[4.5]decan-10-yl)methyl)pyrimidin-4(3H)-one] the IC50 was < 500 nM. With `C[C@H](CC1CCCCC1)C(=O)N1CC[C@@](O)(Cn2cc(C(=O)N3CCNCC3)c(-c3ccccc3)cc2=O)C(C)(C)C1` [Example 124, 1-(((S)-1-((R)-3-Cyclohexyl-2-methylpropanoyl)-4-hydroxy-3,3-dimethylpiperidin-4-yl)methyl)-4-phenyl-5-(piperazine-1-carbonyl)pyridin-2(1H)-one] the IC50 was < 500 nM. `C[C@H](CC1CCCCC1)C(=O)N1CCC(O)(Cn2cc(C(=O)N3CCOCC3)c(-c3ccccc3)cc2=O)C(C)(C)C1` (stereo partly drawn) [Example 168] was tested, and the IC50 was < 500 nM. For `C[C@H](CC1CCCCC1)C(=O)N1CC[C@@](O)(Cn2cc(C(=O)N3CCNCC3)c(-c3ccccc3F)cc2=O)C2(CCCC2)C1` [Example 227, 1-(((S)-7-((R)-3-Cyclohexyl-2-methylpropanoyl)-10-hydroxy-7-azaspiro[4.5]decan-10-yl)methyl)-4-(2-fluorophenyl)-5-(piperazine-1-carbonyl)pyridin-2(1 H)-one], the IC50 was < 500 nM. `C[C@H](CC1CCCCC1)C(=O)N1CCC(O)(Cn2cnc(-c3ccsc3)cc2=O)C(C)(C)C1` (stereo partly drawn) [Example 135] was tested, and the IC50 was < 500 nM. With `C[C@H](CC1CCCCC1)C(=O)N1CC[C@@](O)(Cn2cc(C(=O)N3CCOCC3)c(-c3ccccc3)cc2=O)C2(CCCC2)C1` [Example 239, 1-(((S)-7-((R)-3-Cyclohexyl-2-methylpropanoyl)-10-hydroxy-7-azaspiro[4.5]decan-10-yl)methyl)-5-(morpholine-4-carbonyl)-4-phenylpyridin-2(1H)-one] the IC50 was < 500 nM.

Reference: patent US20220016115A1, “USP19 INHIBITORS FOR USE IN THERAPY” (ALMAC DISCOVERY LIMITED, priority 2018, published 2022)
